The test system of data set [1] is NPC patient-derived skin fibroblasts. The experiment in a line: Amplex red cholesterol assay (free cholesterol). Particulars: NPCD fibroblasts. The data set is classed as cell-based, human. The text has this: Free cholesterol accumulation in cells is a hallmark of NPC disease. The Amplex red cholesterol assay was used to screen an approved drug library in the NPC patient-derived skin fibroblasts that have free cholesterol accumulation in late endosome and lysosome. […] We then show δ-tocopherol in the filipin cholesterol staining assay, a method used clinically for NPCD diagnosis. […] Lysosome size is usually enlarged in the NPCD cells using a lysotracker staining assay.
The free cholesterol level in these cells was then measured by a cholesterol oxidase coupled HRP/amplex red detection method with a commercial available kit (Invitrogen). The cells were seeded to black, tissue culture-treated 1536-well plates (Greiner Bio-One, Monroe, N.C.) at 800 cells/well in 5 μl medium by a Multidrop Combi dispenser (Thermo Scientific, Waltham, Mass.) and cultured for 24 hours. The assay plates were added with 23 nl/well of compound DMSO solution using a pintool station (Kalypsys, San Diego, Calif.) and cultured for 3 days. The 1536-well assay plate was washed by a plate-inverted centrifugation method that removing medium by centrifuging plates upside down against a stack of paper towel at 1000 rpm for 1 min followed by addition of 7 μl/well PBS buffer, repeating for two times. The PBS buffer was added with a 45 degree angled dispenser (Kalypsys) or a Multi-Drop Combi dispenser set at medium speed to reduce disturbance to the cells. After the cell wash, 2.5 μl/well of detection mixture from the kit was added followed by 1 hour incubation at 37° C. With the addition of the detection mixture, the cells were lysed by the detergent containing buffer and free cholesterols in cell lysate were oxidized by cholesterol oxidase to produce H2O2 which reacting with amplex red dye in the presence of horseradish peroxidase to yield red fluorescence signal. A ViewLux plate reader (PerkinElmer, Boston, Mass.) was used to measure the fluorescent signal in assay plates with the excitation of 573 nm and emissions of 610 nm.

The subject of a further data set is NPCD fibroblasts. The data set can be described thus: Lysotracker staining assay (lysosome size). The data set is classed as cell-based, human. As to conditions: NPCD fibroblasts. On the procedure:
Lysotracker is fluorescent dye that stains acidic compartments in live cells and is well-retained after aldehyde fixation. We have optimized a lysotracker staining assay to visualize the enlarged lysosome size in the NPC skin fibroblasts by applying appropriate concentration of lysotracker dye in comparison with these normal fibroblast cells. Cells were seeded at 8000 cells/well in 100 μl medium in a black/clear bottom, tissue culture treated plate and cultured overnight or in a dedicated time. The cells were live-stained with 100 u/well 50 nM Lysotracker Red-99 dye (Invitrogen) dissolved medium at 37° C. for 1 hr followed by two-times plate wash with PBS buffer using the plate-inverted centrifugation method. The plate was then added with 100 μl/well 3.2% formaldehyde and 1 μg/ml Hoechst 33342 (Invitrogen) in PBS and incubated at room temperature for 30 minutes. After three times of plate wash with PBS buffer, samples were stored at 4° C. until imaging. Samples were photographed using an IN Cell Analyzer 1000 (GE Healthcare) with a 20× objective equipped with CCD camera. DAPI filter and TRITC filter were used to visualize Hoechst and Lysotracker red, respectively. The images were processed by Adobe Photoshop.

In the next data set the test system is NPC fibroblasts. The experiment in a line: Lipid measurement by mass spectrometry (GC/MS). The data set is classed as cell-based, human. Particulars: 80 μM α-tocopherol or 40 uM δ-tocopherol for 5 days. The protocol: (§1) Effects of δ-tocopherol and α-tocopherols on (FIG. 4A) free cholesterol, (FIG. 4B) cholesterol ester and (FIG. 4C) sphingomyelin in NPC cells. NPC or WT cells were treated with DMSO, 80 μM α-tocopherol or 40 uM δ-tocopherol for 5 days. Cell pellets were collected and extracted for lipids. FC EC and sphingomyelin levels were measured by GC/MS. (FIG. 4D) Effects of δ-tocopherols and α-tocopherols on cholesterol efflux.
(§2) Cell pellets were collected from 100-mm dishes and washed once with 10 ml PBS. Proteins were assayed using the BCA kit (Sigma-Aldrich) and lipids were extracted by modified Bligh and Dyer procedure (29) from the cells. Internal standards were added based on protein concentration that included N12:0 sphingomyelin, D7-cholesterol, 17:0 cholesterol ester (Avanti Polar Lipids, Inc). A portion of the lipid extract was used for detection of sphingomyelins using direct infusion mass spectrometric assay with lithium hydroxide for facilitating ionization and the rest was used to convert cholesterol and its ester into acetate by derivatization. The derivatization was performed by treating the dried crude lipid extract with solutions of 1 M acetic acid with 1 M DMAP in chloroform and 1 M EDC in chloroform at 50° C. for 2 hours. The derivatized product was extracted with hexane and analyzed by direct infusion mass spectrometric assay with 5% ammonium hydroxide for facilitating ionization.
(§3) A triple-quadrupole mass spectrometer equipped with an electrospray was used for analysis of lipids in positive mode. Sphingomyelins, cholesterol and cholesterol esters were detected by neutral loss scan of 213 (collision energy: 50 V), neutral loss scan of 77 (collision energy: 14 V) and precursor ion scan of m/z 369 (collision energy: 14 V) respectively. Data processing of mass spectrometric analyses including ion peak selection, data transferring, peak intensity comparison and quantitation was conducted using self-programmed Microsoft Excel macros (30).

Another data set deals with wild type cells. The experiment in a line: Lipid measurement by mass spectrometry (GC/MS). Type of data set: cell-based, human. Particulars: wild type cells; 80 μM α-tocopherol or 40 uM δ-tocopherol for 5 days. On the procedure: as §1, §2, §3
In the next data set the test system is Wolman disease cells. The experiment in a line: Amplex-red cholesterol assay (total cholesterol), combination therapy. Type of data set: cell-based, human. The text has this: (1) Amplex-red cholesterol assay. This biochemical assay (Invitrogen) uses cholesterol oxidase and a HRP-Amplex-re reporting system to measure the free cholesterol level in cells. With the addition of acid lipase to this assay, that hydrolyzes cholesterol ester to free cholesterol, the level of total cholesterol in cells including the cholesterol ester can be measured. This assay was used for detecting the total cholesterol level of in fibroblasts from patients with Wolman disease.

For data set [2] the following is noted: human plasma, physiological level; cited from earlier work.
The test system of the next data set is NPC mouse model. As to conditions: cited from earlier work.
In another data set the test system is NPC cat model. Particulars: cited from earlier work.

Here are results for 8 compounds from US10039741B2, “Use of delta tocopherol for the treatment of lysosomal storage disorders” (The United States of America, as represented by the …, priority 2010, dated 2018).

For the compound `O=C1O[C@H]([C@@H](O)CO)C(O)=C1O` [vitamin C, reference compound], the “cholesterol amount (cholesterol reduction)” value in data set [1] was “not active”. For the same compound, the enlarged lysosome size entry in the data set on NPCD fibroblasts is listed as “not active”.
In the case of `CC(=O)N[C@@H](CS)C(=O)O` [NAc, N-acetyl cysteine, reference compound], the “cholesterol amount (cholesterol reduction)” value in data set [1] is recorded as “did not have any effect”. The enlarged lysosome size result in the data set with NPCD fibroblasts was “did not have any effect”.
In the case of `Cc1c(C)c2c(c(C)c1O)CC[C@@](C)(CCC[C@H](C)CCC[C@H](C)CCCC(C)C)O2` [α-tocopherol, reference compound], in the data set with NPC fibroblasts (NPCD cells), the “amount of cholesterol ester” value was “significantly reduced” and the sphingomyelin amount entry was “not significantly changed”. Further, the free cholesterol level result in the data set on NPC fibroblasts (NPCD fibroblasts) is “not statistically different”. In the data set on wild type cells, the “amount of cholesterol ester” value is reported as “significantly reduced” and the sphingomyelin amount entry was “not significantly changed”. The “cholesterol level, sole therapy” value in the data set with Wolman disease cells (40 μM delta-tocopherol or 80 μM alpha-tocopherol alone) is given as “cholesterol reduction effect”. In addition, in the data set on Wolman disease cells (alpha-tocopherol 20 uM combined with 10 μM MBCD), the “cholesterol level, combination” value is reported as “cholesterol reduction effect”. In addition, the plasma concentration in data set [2] is roughly 26 µM.
Take vitamin D [reference compound]: in data set [1], the “cholesterol amount (cholesterol reduction)” value is listed as “not active”. In addition, the enlarged lysosome size result with NPCD fibroblasts was “not active”.
For “methyl-beta-cyclodextrin [MBCD, reference compound]”, the cholesterol level entry in the data set on Wolman disease cells (MBCD at 0.3 mM alone) is on record as “time dependent reduction”.
As for `Cc1c(O)cc2c(c1C)O[C@](C)(CCC[C@H](C)CCC[C@H](C)CCCC(C)C)CC2` [γ-tocopherol, reference compound], in data set [1] (Homo sapiens, Skin fibroblast, read-out: EC50, reduction of cholesterol accumulation), the EC50 was 60 to 80 µM.
Regarding vitamin K [reference compound], in data set [1], the “cholesterol amount (cholesterol reduction)” value is reported as “not active”. The enlarged lysosome size result in the data set with NPCD fibroblasts was “not active”.
Consider `OC[C@H]1O[C@@H]2O[C@H]3[C@H](O)[C@@H](O)[C@@H](O[C@H]4[C@H](O)[C@@H](O)[C@@H](O[C@H]5[C@H](O)[C@@H](O)[C@@H](O[C@H]6[C@H](O)[C@@H](O)[C@@H](O[C@H]7[C@H](O)[C@@H](O)[C@@H](O[C@H]8[C@H](O)[C@@H](O)[C@@H](O[C@H]1[C@H](O)[C@H]2O)O[C@@H]8CO)O[C@@H]7CO)O[C@@H]6CO)O[C@@H]5CO)O[C@@H]4CO)O[C@@H]3CO` [Beta-cyclodextrin], for which, in the data set with NPC mouse model, the cholesterol accumulation entry is on record as “reduce cholesterol accumulation” and the life span result is given as “increase in life span”. For the same compound, in the data set on NPC cat model, the cholesterol accumulation result is given as “reduce cholesterol accumulation” and the life span entry is on record as “increase in life span”.

The term EC50 denotes the midpoint of the concentration-response curve.
